# *1 amine or outer side, *2 acyl side, *3 side chain or, on linkers, in order; H or OH if unused. Where a SMILES comes first, the peptide text is derived from it. Side-chain parts run from the residue outwards. [ ]: non-standard residue; d: D form. The star is where a group is joined. PEG12 = NCCOCCOCCOCCOCCOCCOCCOCCOCCOCCOCCOCCOCCC(=O)O; γGlu = O=C(O)[C@H](CCC(=O)[*:2])N[*:1]; Stearoyl = CCCCCCCCCCCCCCCCCC(=O)*; Palmitoyl = CCCCCCCCCCCCCCCC(=O)*; αMeK = C[C@](N)(CCCCN)C(=O)O; Nle = CCCC[C@H](N)C(=O)O; AEEA = NCCOCCOCC(=O)O; Aib = CC(C)(N)C(=O)O
# What was measured:
# RXFP1 = molecular target: T1, RXFP1 (Homo sapiens, UniProt Q9HBX9); assay: OVCAR5 cAMP assay (HTRF), RXFP1 agonist activity; assay type: cell-based; conditions: for EC50: OVCAR5 cells, cAMP HTRF, read-out: EC50 (nM), OVCAR 5 cells (cAMP); for Emax: OVCAR-5, maximal cAMP relative to H2-relaxin maximum (100%), read-out: EMax, OVCAR 5 cells (cAMP)
# T1 construct: OVCAR5 cells expressing endogenous RXFP1; endogenous in cells; host or cells: OVCAR5 cells
# T1 sequence (Q9HBX9 1-757): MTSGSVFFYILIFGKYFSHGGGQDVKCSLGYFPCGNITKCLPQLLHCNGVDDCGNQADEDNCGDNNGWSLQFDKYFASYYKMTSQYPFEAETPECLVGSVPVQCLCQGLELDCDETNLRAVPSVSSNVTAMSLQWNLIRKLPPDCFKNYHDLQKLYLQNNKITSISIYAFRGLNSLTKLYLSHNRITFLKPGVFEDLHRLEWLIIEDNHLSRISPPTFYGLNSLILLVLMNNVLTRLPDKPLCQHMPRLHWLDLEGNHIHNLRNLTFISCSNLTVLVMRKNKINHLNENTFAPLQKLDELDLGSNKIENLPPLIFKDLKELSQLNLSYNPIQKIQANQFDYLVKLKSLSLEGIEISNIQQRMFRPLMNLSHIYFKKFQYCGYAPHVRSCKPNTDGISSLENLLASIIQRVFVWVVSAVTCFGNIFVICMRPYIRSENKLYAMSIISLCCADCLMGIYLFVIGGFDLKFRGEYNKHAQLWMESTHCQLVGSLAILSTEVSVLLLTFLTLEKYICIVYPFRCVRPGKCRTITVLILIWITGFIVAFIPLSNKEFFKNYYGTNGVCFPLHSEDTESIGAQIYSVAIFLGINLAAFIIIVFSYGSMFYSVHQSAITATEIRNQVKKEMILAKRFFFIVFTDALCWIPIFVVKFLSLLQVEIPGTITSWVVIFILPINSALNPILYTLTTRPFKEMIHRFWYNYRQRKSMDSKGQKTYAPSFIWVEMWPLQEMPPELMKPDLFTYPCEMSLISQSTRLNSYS
# Summary of the method: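 OVCAR5 cells (endogenous RXFP1) pretreated 40 min at 37° C with 1 mM IBMX, then exposed to peptides in serum-free medium for 30 min at 37° C. Lysate cAMP read by HTRF; EC50 from variable-slope sigmoidal fit; Emax as % of H2-relaxin maximal cAMP in same run.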
# [1] = Pharmacokinetic (PK) determination after i.v. or s.c. administration to rats; assay type: in vivo, Sprague Dawley rats; conditions: Rat PK; for T½ / C0 / half-life: 1 mg/kg i.v.; for C0 / half-life: iv; for C0: extrapolated plasma concentration at t=0, read-out: C0; for Cmax / Tmax: 3 mg/kg s.c.; for bioavailability: subcutaneous; for half-life: read-out: T½ (converted)
# Summary of the method: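 Sprague Dawley rats received peptide in PBS at 1 mg/kg i.v. or 3 mg/kg s.c., dose corrected for salts, solvent and purity. Plasma analysed by LC/MS after protein precipitation; non-compartmental PK, BLQ values set to zero, F% as dose-corrected s.c./i.v. AUC ratio.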
# [2] = Stability testing of peptides in rat plasma or blood; assay type: in vitro ADME; conditions: 37° C.; for Rat plasma stability % remaining T = 0: rat plasma or blood, T = 0 (reference), 5 μM
# Summary of the method: (§1)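 Peptide at 5 µM final was incubated at 37 °C in heparinized rat or human plasma or blood, sampled up to 4 h, and extracted with acetonitrile/1% TFA. HPLC peak areas relative to t0 give % remaining peptide.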
# [3] = Stability testing of peptides in human plasma or blood; assay type: in vitro ADME; conditions: 37° C.; for Human Plasma stability % remaining T = 0: human plasma or blood, T = 0 (reference), 5 μM
# Summary of the method: as §1
# [4] = Sprague Dawley, plasma, 3 mg/kg s.c. vs 1 mg/kg i.v., dose-corrected AUC ratio
# [5] = rat plasma, read-out: Rat plasma stability % remaining 1 h
# [6] = rat plasma, read-out: Rat plasma stability % remaining 4 h
# [7] = human plasma, read-out: Human Plasma stability % remaining 1 h
# [8] = human plasma, read-out: Human Plasma stability % remaining 4 h
EC50 (RXFP1),Emax (RXFP1),T½ [1],C0 ([1]; Sprague Dawley),"Cmax ([1]; Sprague Dawley, plasma, sc)","Tmax ([1]; Sprague Dawley, plasma, sc)","bioavailability [1, 4]",Rat plasma stability % remaining T = 0 [2],"remaining at 1 h, 5 µM [2, 5]","remaining at 4 h, 5 µM [2, 6]",Human Plasma stability % remaining T = 0 [3],"remaining at 1 h, 5 µM [3, 7]","remaining at 4 h, 5 µM [3, 8]","half-life ([1]; Sprague Dawley, plasma)",Cmax [1],"F % ([1]; 3 mg/kg s.c. vs 1 mg/kg i.v., dose-corrected AUC ratio)","remaining at 1 h, 5 µM ([2]; whole blood, rat blood, read-out: Rat stability in blood % remaining 1 h)","remaining at 4 h, 5 µM ([2]; whole blood, rat blood, read-out: Rat stability in blood % remaining 4 h)","remaining at 1 h, 5 µM ([3]; whole blood, human blood, read-out: Human stability in blood % remaining 1 h)","remaining at 4 h, 5 µM ([3]; whole blood, human blood, read-out: Human stability in blood % remaining 4 h)",SMILES
0.61 nM,100%,4.30 h,4200 nM,2500 nM,8 h,60%,100%,93%,80%,100%,99%,96%,–,–,–,–,–,–,–,CCCCCCCCCCCCCCCCCC(=O)N[C@@H](CCC(=O)N[C@@H](CCC(=O)N[C@@H](CCC(=O)NCCCC[C@H](NC(=O)CCOCCOCCOCCOCCOCCOCCOCCOCCOCCOCCOCCOCCNC(=O)[C@H](CCCCNC(C)=O)NC(=O)[C@H](CCCCN)NC(=O)[C@H](CCCNC(=N)N)NC(=O)C(C)(C)NC(=O)[C@H](CO)NC(=O)[C@H](Cc1c[nH]c2ccccc12)NC(=O)[C@@H](NC(=O)[C@H](CO)NC(=O)[C@H](CCCC)NC(=O)CNC(=O)[C@H](CCC(=O)O)NC(=O)C(C)(C)NC(=O)C(C)(C)NC(=O)[C@@H](NC(=O)[C@H](CCCCNC(C)=O)NC(=O)[C@H](C)NC(=O)[C@H](CCCNC(=N)N)NC(=O)[C@@H](NC(=O)[C@H](CCCCN)NC(=O)[C@H](CCC(=O)O)NC(=O)[C@H](CCCNC(=N)N)NC(=O)CNC(=O)[C@H](CCC(=O)O)NC(=O)[C@H](CC(C)C)NC(C)=O)C(C)C)[C@@H](C)CC)[C@@H](C)O)C(N)=O)C(=O)O)C(=O)O)C(=O)O [compound 33] (Ac-LEGREKVRAK(Ac)I[Aib][Aib]EG[Nle]STWS[Aib]RKK(Ac)[PEG12]K([γGlu-γGlu-γGlu-Stearoyl])-NH2)
–,83%,–,4020 nM,1340 nM,6 h,55%,100%,96%,101%,100%,100%,11%,7.9 h,–,–,–,–,–,–,CCCCCCCCCCCCCCCC(=O)N[C@@H](CCC(=O)N[C@@H](CCC(=O)N[C@@H](CCC(=O)NCCOCCOCC(=O)NCCOCCOCC(=O)NCCCC[C@H](NC(=O)[C@H](CCCCN)NC(=O)[C@H](CCCNC(=N)N)NC(=O)C(C)(C)NC(=O)[C@H](CO)NC(=O)[C@H](Cc1c[nH]c2ccccc12)NC(=O)[C@@H](NC(=O)[C@H](CO)NC(=O)[C@H](CCCC)NC(=O)CNC(=O)[C@H](CCC(=O)O)NC(=O)C(C)(C)NC(=O)C(C)(C)NC(=O)[C@@H](NC(=O)[C@H](CCC(N)=O)NC(=O)[C@H](C)NC(=O)[C@H](CCCNC(=N)N)NC(=O)[C@@H](NC(=O)[C@H](CCCCN)NC(=O)[C@H](CCC(=O)O)NC(=O)[C@H](CCCNC(=N)N)NC(=O)CNC(=O)[C@H](CCC(=O)O)NC(=O)[C@H](CC(C)C)NC(C)=O)C(C)C)[C@@H](C)CC)[C@@H](C)O)C(N)=O)C(=O)O)C(=O)O)C(=O)O [compound 58] (Ac-LEGREKVRAQI[Aib][Aib]EG[Nle]STWS[Aib]RKK([AEEA-AEEA-γGlu-γGlu-γGlu-Palmitoyl])-NH2)
0.22 nM,84%,3.90 h,2600 nM,–,8 h,–,100%,101%,114%,100%,111%,111%,–,1500 nM,74%,–,–,–,–,CCCCCCCCCCCCCCCCCC(=O)N[C@@H](CCC(=O)N[C@@H](CCC(=O)N[C@@H](CCC(=O)NCCOCCOCC(=O)NCCOCCOCC(=O)NCCOCCOCC(=O)NCCCC[C@H](NC(=O)[C@H](CCCCNC(C)=O)NC(=O)[C@H](CCCCN)NC(=O)[C@H](CCCNC(=N)N)NC(=O)C(C)(C)NC(=O)[C@H](CO)NC(=O)[C@H](Cc1c[nH]c2ccccc12)NC(=O)[C@@H](NC(=O)[C@H](CO)NC(=O)[C@H](CCCC)NC(=O)CNC(=O)[C@H](CCC(=O)O)NC(=O)C(C)(C)NC(=O)C(C)(C)NC(=O)[C@@H](NC(=O)[C@H](CCCCNC(C)=O)NC(=O)[C@H](C)NC(=O)[C@H](CCCNC(=N)N)NC(=O)[C@@H](NC(=O)[C@H](CCCCN)NC(=O)[C@H](CCC(=O)O)NC(=O)[C@H](CCCNC(=N)N)NC(=O)CNC(=O)[C@H](CCC(=O)O)NC(=O)[C@H](CC(C)C)NC(C)=O)C(C)C)[C@@H](C)CC)[C@@H](C)O)C(N)=O)C(=O)O)C(=O)O)C(=O)O [compound 81] (Ac-LEGREKVRAK(Ac)I[Aib][Aib]EG[Nle]STWS[Aib]RKK(Ac)K([AEEA-AEEA-AEEA-γGlu-γGlu-γGlu-Stearoyl])-NH2)
0.07 nM,92%,–,3600 nM,2100 nM,8 h,76%,100%,–,–,100%,–,–,5.7 h,–,–,86%,90%,34%,78%,CCCCCCCCCCCCCCCC(=O)N[C@@H](CCC(=O)N[C@@H](CCC(=O)N[C@@H](CCC(=O)N[C@@H](CCC(=O)NCCCC[C@H](NC(=O)COCCOCCNC(=O)COCCOCCNC(=O)COCCOCCNC(=O)COCCOCCNC(=O)[C@H](CCCCNC(C)=O)NC(=O)[C@H](C)NC(=O)[C@H](CCCNC(=N)N)NC(=O)[C@](C)(CCCCN)NC(=O)[C@H](CO)NC(=O)[C@H](Cc1ccccc1)NC(=O)[C@@H](NC(=O)[C@H](CO)NC(=O)[C@H](CCCC)NC(=O)CNC(=O)[C@H](CCC(=O)O)NC(=O)C(C)(C)NC(=O)C(C)(C)NC(=O)[C@@H](NC(=O)[C@H](CCCCNC(C)=O)NC(=O)[C@H](C)NC(=O)[C@H](CCCNC(=N)N)NC(=O)[C@@H](NC(=O)[C@H](CCCCN)NC(=O)[C@H](CCC(=O)O)NC(=O)[C@H](CCCNC(=N)N)NC(=O)CNC(=O)[C@H](CCC(=O)O)NC(=O)[C@H](CC(C)C)NC(C)=O)C(C)C)[C@@H](C)CC)[C@@H](C)O)C(N)=O)C(=O)O)C(=O)O)C(=O)O)C(=O)O [compound 150] (Ac-LEGREKVRAK(Ac)I[Aib][Aib]EG[Nle]STFS[αMeK]RAK(Ac)[AEEA][AEEA][AEEA][AEEA]K([γGlu-γGlu-γGlu-γGlu-Palmitoyl])-NH2)
